Data reported in patent publication US20070015733A1, “Aryl Phosphate Derivatives of d4T having Activity Against Resistant HIV Strains” (Parker Hughes Institute, priority 1998, published 2007).
Like-named read-outs stand apart in the source and are kept apart here.

Assays:
[1] = test system: AZT- and NNI-resistant HIV-1 (strain: RTMDR-1); test: Inhibition of RTMDR-1 (HIV-MDR) replication in PBMNC (RT activity); type: cell-based
Experimental: Cellular Assays of Anti-HIV Activity and Cytotoxicity. […] Percent viral inhibition was calculated by comparing the RT activity values from the test substance-treated infected cells with RT values from untreated infected cells (i.e., virus controls).

[2] = test system: zidovudine-resistant primary clinical HIV-1 isolates; test: p24 drug susceptibility assay, NRTI-/zidovudine-resistant primary clinical HIV-1 isolates in PBMC; type: cell-based
Experimental: Viruses. […] The HIV-1 strains HTLVIIIB (wildtype RT, NRTI-sensitive, NNRTI-sensitive), A17 (Y181 C mutant, NNRTI-resistant), A17-variant (Y181C+K103N mutant, NNRTI-resistant), and RT-MDR (M41 L, V106N, T215Y; NRTI-resistant, NNRTI-resistant) were also obtained from the AIDS Research and Reference Reagent Program, NIAID.
Antiviral susceptibility assays. Phenotypic drug susceptibility studies of HIV-1 isolates and strains were performed by measuring the production of the p24 gag protein in peripheral blood mononuclear cells (PBMC) from seronegative healthy volunteers in the presence of increasing concentrations of the anti-HIV agent using the quantitative Coulter HIV-1 p24 antigen ezyme immunoassay (EIA) and HIV-1 p24 Antigen Kinetic Standard (Beckman Coulter), as previously described (Uckun, 1998, Antimicrobial Agents and Chemotherapy 37(4): 835-38). Informed consent was obtained from the blood donors according to DHHS guidelines using consent forms approved by the Institutional Review Board. In brief, PBMC were cultured for 72 h in RPMI 1640 medium (Gibco) supplemented with 20% (vol/vol) heat-inactivated fetal bovine serum, 5% human interleukin-2 (Zeptometrix), 2 mM L-glutamine, 25 mM HEPES, 2 g/L NaHCO3, 100 U/ml penicillin/streptomycin (Gibco), 50 μg/ml gentamicin (Gibco), and 5 μg/ml phytohemagglutinin-P (PHA-P) (Sigma) for 24-72 hours prior to exposure to HIV at a multiplicity of infection of 0.001-0.1 during a 1-h adsorbtion period at 37±1° C. in a humidified 5-7% CO2 atmosphere. Subsequently, cells were cultured in 96-well microtiter plates (100 μl/well; 2×10^6 cells/ml, triplicate wells) in the presence of the anti-HIV agents at 6-7 different concentrations ranging from 0.0001 μM to 100 μM, and 25 μL aliquots of culture supernatants were removed from the wells on day 6 after infection for p24 EIA, as previously described (Uckun, 1998, Antimicrobial Agents and Chemotherapy, 37(4):835-38). Controls included uninfected and untreated cells (background control) and infected but untreated (virus control) cells. The p24 EIA utilizes a murine monoclonal antibody to HIV core protein used to coat microwell strips to which the antigen present in the test culture supernatant samples binds. Percent inhibition of viral replication was calculated by comparing the p24 values from the test substance-treated infected cells with p24 values from untreated infected cells (i.e., virus controls). The IC50 values were determined using the Statview statistics program (SAS Institute, Inc.). In parallel, the effects of various treatments on cell viability were also examined as previously described (Uckun, 1998, Antimicrobial Agents and Chemotherapy, 42:383-388). In brief, noninfected PBMC were treated with each compound for 5 days under identical experimental conditions. A microculture tetrazolium assay (MTA) was performed to quantitate cellular proliferation (Uckun, 1998, Antimicrobial Agents and Chemotherapy, 42:383-388).
Phenotypic drug susceptibility studies of HIV-1 isolates and strains were performed by measuring the production of the p24 gag protein in peripheral blood mononuclear cells (PBMC) from seronegative healthy volunteers in the presence of increasing concentrations of the anti-HIV agent using the quantitative Coulter HIV-1 p24 antigen enzyme immunoassay (EIA) and HIV-1 p24 Antigen Kinetic Standard (Beckman Coulter), as previously described. StatView was used in the calculation of the IC50 values from each set of triplicate wells using the linearized form of an exponential equation (lnY=lnb0+b1X; where Y=% inhibition, X=drug concentration). The inhibition constants were log10 transformed to homogenize the variances within each group. […] P-values below 0.05 were deemed significant (JMP Software, SAS).

[3] = test system: NRTI-resistant recombinant HIV-1 isolates; test: Documented fold decreased susceptibility of recombinant HIV-1 clones; type: cell-based; conditions: for mean reduction in susceptibility: mean over 6 recombinant clones; for median reduction in susceptibility: median over 6 recombinant clones
[4] = test system: NRTI-resistant recombinant HIV-1 isolates; conditions: cited from earlier work
[5] = Pharmacokinetics after intravenous or oral administration; type: in vivo, mice; conditions: intravenous administration

## Cc1cn([C@H]2C[C@H](N=[N+]=[N-])[C@@H](CO)O2)c(=O)[nH]c1=O [AZT, 3′-azido-3′-deoxythymidine]
[1]; Human immunodeficiency virus 1, read-out: HIV-MDR IC50 [RT]
  IC50: 2 µM
[1]; Human immunodeficiency virus 1, read-out: IC50 against HIV-MDR
  IC50: 2 µM
[1]; Human immunodeficiency virus 1, read-out: RTMDR-1 IC50 [RT]
  IC50: 2 µM
[1]; PBMNC
  antiviral activity against RTMDR-1 (in words): not effective
[2]; Human immunodeficiency virus 1, PBMC, isolate 92BR019 (D67N, L214F, T215D, K219Q), PBMC
  IC50: 0.2 µM
[2]; Human immunodeficiency virus 1, PBMC, isolate C140 (M41L, M184V, T215Y), PBMC
  IC50: 0.1 µM
[2]; Human immunodeficiency virus 1, PBMC, isolate C140, PBMC, p24
  IC50: 0.1 µM
[2]; Human immunodeficiency virus 1, PBMC, isolate C467-4 (K20R, D67N, K70R, Y188L, T215F, K219Q), PBMC
  IC50: 3.2 µM
[2]; Human immunodeficiency virus 1, PBMC, isolate G190-6, PBMC, p24
  IC50: > 3.2 µM
[2]; Human immunodeficiency virus 1, PBMC, isolate G691-2 (mutations N.D.), PBMC
  IC50: 2.6 µM
[2]; Human immunodeficiency virus 1, PBMC, isolate G704-2, PBMC, p24
  IC50: 1.8 µM
[2]; Human immunodeficiency virus 1, PBMC, isolate G780-1 (M41L, D67N, K70R, T215F, K219Q), PBMC
  IC50: > 3.2 µM
[2]; Human immunodeficiency virus 1, PBMC, isolate G780-1, PBMC, p24
  IC50: > 3.2 µM
[2]; Human immunodeficiency virus 1, PBMC, isolate G890-1 (K20R, M41L, D67N, T69N, K70R, L210W, T215Y), PBMC
  IC50: > 3.2 µM
[2]; Human immunodeficiency virus 1, PBMC, isolate G890-1, PBMC, p24
  IC50: > 3.2 µM
[2]; Human immunodeficiency virus 1, PBMC, isolate P798-1 (M41L, T215Y), PBMC
  IC50: 1.8 µM
[2]; Human immunodeficiency virus 1, PBMC, isolate Q252-2 (M41L, L210W, T215Y), PBMC
  IC50: 1.7 µM
[2]; Human immunodeficiency virus 1, PBMC, isolate R416-10 (M41L, T215Y), PBMC
  IC50: 0.3 µM
[2]; Human immunodeficiency virus 1, PBMC, isolate S159-2 (M41L, K103N, T215Y), PBMC
  IC50: 0.7 µM
[2]; Human immunodeficiency virus 1, PBMC, isolate S762-4 (M41L, T215Y), PBMC
  IC50: 1.2 µM
[2]; Human immunodeficiency virus 1, PBMC, isolate T156-3 (M41L, E44D, D67N, T69D, L210W, T215Y), PBMC
  IC50: > 3.2 µM
[2]; Human immunodeficiency virus 1, PBMC, isolate T156-3, PBMC, p24
  IC50: > 3.2 µM
[2]; Human immunodeficiency virus 1, PBMC, isolate X165-8 (D67N, T69N, K70R, K103N, Y181C, T215F, K219E), PBMC
  IC50: 0.9 µM
[2]; Human immunodeficiency virus 1, PBMC, isolate X165-9 (K20R, D67N, K103N, T215Y), PBMC
  IC50: 0.9 µM
[2]; Human immunodeficiency virus 1, PBMC, isolate X267-1 (L74V), PBMC, p24
  IC50: 0.6 µM
[2]; Human immunodeficiency virus 1, PBMC, isolate X267-1 (M41L, L74V, L210W, T215Y), PBMC
  IC50: 0.6 µM
[2]; Human immunodeficiency virus 1, PBMC, isolate X267-2 (M41L, T215Y), PBMC
  IC50: 0.4 µM
[2]; Human immunodeficiency virus 1, PBMC, isolate X267-5 (M41L, F116S, T215Y), PBMC
  IC50: 0.6 µM
[2]; Human immunodeficiency virus 1, PBMC, isolate Y270-7 (M41W, Y188L, T215N), PBMC
  IC50: 1.5 µM
[2]; Human immunodeficiency virus 1, PBMC, read-out: IC50, μM, Mean ± SE, mean over 20 zidovudine-resistant primary clinical isolates
  IC50: 1.6 ± 0.5 µM
[2]; Human immunodeficiency virus 1, PBMC, read-out: mean IC50 value, NRTI-resistant isolates with 5 thymidine analog mutations (Group 1 in Table 19)
  IC50: 2.6 µM
[2]; Human immunodeficiency virus 1, PBMC, read-out: mean IC50 value, isolates with M184V plus multiple thymidine analog mutations (Group 2 in Table 19)
  IC50: 0.134 ± 0.0188 µM
[2]; isolate G704-2 (M41L, D67N, K70R, L210W, T215Y), PBMC, listed as zidovudine
  IC50: > 10 µM
[2]; isolate G910-6 (M41L, D67N, K70R, T215Y, K219Q), PBMC, listed as ZDV(AZT)
  IC50: > 3.2 µM
[2]; isolate G910-6 (M41L, D67N, K70R, T215Y, K219Q), PBMC, listed as zidovudine
  IC50: > 10 µM
[3]
  mean reduction in susceptibility: 495.7 fold
  median reduction in susceptibility: 490 fold
[4]; recombinant clone 1617-1
  Fold decreased susceptibility: 261 fold
[4]; recombinant clone 4755-5
  Fold decreased susceptibility: 61 fold
[4]; recombinant clone 7295-1
  Fold decreased susceptibility: 9.9 fold
[4]; recombinant clone 7324-1
  Fold decreased susceptibility: 923 fold
[4]; recombinant clone 52534-2
  Fold decreased susceptibility: 719 fold
[4]; recombinant clone 56252-1
  Fold decreased susceptibility: >1000 fold

## Cc1cn([C@H]2C=C[C@@H](CO)O2)c(=O)[nH]c1=O [d4T, 2′,3′-didehydro-2′,3′-dideoxythymidine]
[5]
  elimination half-life (t1/2) of the administered substance: 30.3 min
[3]
  mean reduction in susceptibility: 8.1 fold
  median reduction in susceptibility: 6.5 fold
[4]; recombinant clone 1617-1
  Fold decreased susceptibility: 11 fold
[4]; recombinant clone 4755-5
  Fold decreased susceptibility: 3.9 fold
[4]; recombinant clone 7295-1
  Fold decreased susceptibility: 1.9 fold
[4]; recombinant clone 7324-1
  Fold decreased susceptibility: 2.6 fold
[4]; recombinant clone 52534-2
  Fold decreased susceptibility: 9 fold
[4]; recombinant clone 56252-1
  Fold decreased susceptibility: 20 fold
